Assay results taken from patent US8883738B2, “Use of a peptide fragment of CD44v6 in the treatment of ophthalmic diseases” (Karlsruher Institut für Technologie, priority 2009, dated 2014).

Tests used:
VEGFR-2 = molecular target: T1, VEGFR-2 (Homo sapiens, UniProt P35968); assay: Activation of VEGFR-2 (phospho-VEGFR-2 Western blot) in HUVEC; type: cell-based; conditions: 100 μg/ml anti-CD44v6, 100 ng/ml peptide
T1 construct: endogenous in cells; host or cells: HUVEC (Provitro GmbH)
Method: Activation of RTKs and Erk Serum starved cells (24 h) were induced with the growth factor HGF (20 ng/ml) at 37° C. for 5 min or with VEGF-A165 or VEGF-A121 (40 ng/ml) at 37° C. for 8 min. Where indicated, the cells were treated with blocking reagents prior to induction at 37° C. for 10 min (100 μg/ml anti-CD44v6, 100 ng/ml v6 peptide or 100 ng/ml control peptide, 0.5 μg/ml CD44v6ECD). Cells were washed with icecold PBS. To detect activated Erk, cells were lysed in boiling SDS-sample buffer containing 100 mM dithiothreitol (DTT) and subjected to Western blot analysis using antibodies against phosphorylated Erk. The Erk loading control was performed on the same blot stripped (62.5 mM Tris pH 6.8, 2% SDS, 0.8% DTT) and probed with the Erk antibody. To detect activated VEGFR-2, cells were lysed in reducing sample buffer and the blots of SDS-PAGE gels were probed with an antibody against phosphorylated VEGFR-2. Alternatively, lysates (20 mM Tris pH 7.4, 1 mM EDTA, 1 mM EGTA, 1 mM DTT, 25 mM NaCl, 1.5% Triton X-100, 10 mM NaF, 1 mM PMSF, 1 mM Na-orthovanadate, 1 mM aprotinin and leupeptin) were prepared. […] Bands in Western blot analysis were quantified with the program Image J.

Erk = assay: Activation of Erk (phospho-Erk Western blot) in HUVEC; type: cell-based, human; conditions: 100 μg/ml anti-CD44v6, 100 ng/ml peptide, 0.5 μg/ml CD44v6ECD; for VEGF-A165 induced activation of Erk: VEGF-A165 40 ng/ml
Method: Activation of RTKs and Erk Serum starved cells (24 h) were induced with the growth factor HGF (20 ng/ml) at 37° C. for 5 min or with VEGF-A165 or VEGF-A121 (40 ng/ml) at 37° C. for 8 min. Where indicated, the cells were treated with blocking reagents prior to induction at 37° C. for 10 min (100 μg/ml anti-CD44v6, 100 ng/ml v6 peptide or 100 ng/ml control peptide, 0.5 μg/ml CD44v6ECD). Cells were washed with icecold PBS. To detect activated Erk, cells were lysed in boiling SDS-sample buffer containing 100 mM dithiothreitol (DTT) and subjected to Western blot analysis using antibodies against phosphorylated Erk. The Erk loading control was performed on the same blot stripped (62.5 mM Tris pH 6.8, 2% SDS, 0.8% DTT) and probed with the Erk antibody. To detect activated VEGFR-2, cells were lysed in reducing sample buffer and the blots of SDS-PAGE gels were probed with an antibody against phosphorylated VEGFR-2. Alternatively, lysates (20 mM Tris pH 7.4, 1 mM EDTA, 1 mM EGTA, 1 mM DTT, 25 mM NaCl, 1.5% Triton X-100, 10 mM NaF, 1 mM PMSF, 1 mM Na-orthovanadate, 1 mM aprotinin and leupeptin) were prepared. After centrifugation, the cleared lysates (12,000 rpm for 15 min) were incubated with VEGFR-2 antibody (clone A-3, Santa Cruz, Heidelberg, Germany) or a mouse IgG control (Santa Cruz, Heidelberg, Germany) at 4° C. overnight followed by incubation with Protein A/G agarose beads (Merck, Darmstadt, Germany) for 2 h at 4° C. The beads were washed three times, boiled in sample buffer and subjected to Western blot analysis using phospho-specific VEGFR-2 antibody. To obtain the loading control, the blots were stripped and reprobed with the VEGFR-2 antibody. Blots were stained using the enhanced chemiluminescence system (ECL, Thermo Fischer Scientific Inc., Waltham, Mass.). Bands in Western blot analysis were quantified with the program Image J.

MDA-MB231 tumors = assay: Orthotopic MDA-MB231 mammary tumor model, tumor-induced angiogenesis; type: in vivo, SCID mice
Method: Injections of tumor cells MDA-MB231 cells (1×10^6 per animal) were harvested at subconfluency, washed with PBS and resuspended in 50 μl of PBS. The cells were implanted through a skin incision with an insulin syringe very slowly into the mammary fat pad of the fourth mammary complex of anesthetized female SCID mice (strain C.B-17/Ztm-scid). The incision was closed using an interrupted Vicryl suture for the skin (5/0, Ethicon, Norderstedt, Germany). The tumors were allowed to grow for one week, then the animals were divided in groups (6 to 7 animals per group) and treated with 20 μg of anti-mouse CD44v6 (clone 9A4), control IgG (NatuTec, Frankfurt, Germany), mouse v6 peptide or control peptide three times per week i.p. Tumor growth was monitored once per week using a caliper or via fpVCT imaging (see below). The animals were sacrificed 5 weeks after tumor cell implantation, the tumors were excised, measured, divided in halves and fixed in 4% formalin or zinc fixative (0.5 g/l calcium acetate, 5 g/l zinc acetate, 5 g/l zinc chloride in 0.1 M Tris pH 7.4) for 24 h for immunohistological analysis. L3.6pl human pancreatic cancer cells were injected orthotopically. Briefly, a small left abdominal flank incision was made and the spleen was exteriorized. […] The tumor volume was calculated as length×height×width divided by 2. […]

T1 sequence (P35968 20-1356): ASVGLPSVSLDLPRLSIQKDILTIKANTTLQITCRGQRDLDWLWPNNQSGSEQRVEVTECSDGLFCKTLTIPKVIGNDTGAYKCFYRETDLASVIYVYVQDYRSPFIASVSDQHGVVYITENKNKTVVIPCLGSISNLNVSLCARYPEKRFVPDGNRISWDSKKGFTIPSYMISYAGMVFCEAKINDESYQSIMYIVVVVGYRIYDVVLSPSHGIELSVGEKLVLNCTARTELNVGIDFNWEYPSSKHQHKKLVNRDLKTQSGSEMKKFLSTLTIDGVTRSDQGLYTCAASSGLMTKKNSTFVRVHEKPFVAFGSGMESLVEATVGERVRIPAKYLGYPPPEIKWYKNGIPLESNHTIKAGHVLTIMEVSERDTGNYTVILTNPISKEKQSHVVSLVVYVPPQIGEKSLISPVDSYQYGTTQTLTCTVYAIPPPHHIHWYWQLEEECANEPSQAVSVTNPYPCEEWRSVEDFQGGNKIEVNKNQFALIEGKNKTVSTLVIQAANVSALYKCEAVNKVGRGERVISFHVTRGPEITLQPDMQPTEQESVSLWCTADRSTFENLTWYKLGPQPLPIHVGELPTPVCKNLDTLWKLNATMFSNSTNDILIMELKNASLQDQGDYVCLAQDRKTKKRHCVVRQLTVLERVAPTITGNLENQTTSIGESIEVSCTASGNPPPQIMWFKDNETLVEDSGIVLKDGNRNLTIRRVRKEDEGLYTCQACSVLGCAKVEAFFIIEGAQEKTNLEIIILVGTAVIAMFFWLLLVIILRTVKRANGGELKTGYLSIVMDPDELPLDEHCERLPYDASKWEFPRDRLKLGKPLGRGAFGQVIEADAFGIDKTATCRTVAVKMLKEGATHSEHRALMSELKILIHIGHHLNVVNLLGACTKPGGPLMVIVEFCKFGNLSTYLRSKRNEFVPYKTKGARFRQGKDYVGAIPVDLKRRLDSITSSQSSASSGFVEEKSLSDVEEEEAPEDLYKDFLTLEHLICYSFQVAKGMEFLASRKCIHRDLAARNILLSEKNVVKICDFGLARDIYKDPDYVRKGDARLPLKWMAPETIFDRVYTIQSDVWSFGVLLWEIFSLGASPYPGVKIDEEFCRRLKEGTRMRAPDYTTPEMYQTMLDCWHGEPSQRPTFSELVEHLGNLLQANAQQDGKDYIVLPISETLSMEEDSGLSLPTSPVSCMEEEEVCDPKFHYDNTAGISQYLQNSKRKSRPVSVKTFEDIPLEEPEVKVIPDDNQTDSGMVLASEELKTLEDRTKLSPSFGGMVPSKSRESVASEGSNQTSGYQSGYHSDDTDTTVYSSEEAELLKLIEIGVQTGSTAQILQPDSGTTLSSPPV

Substance | activation of VEGFR-2 by VEGF-A121 (VEGFR-2; VEGF-A121 40 ng/ml, 0.5 μg/ml CD44v6ECD) | HGF induced activation of Erk (Erk; HGF 20 ng/ml) | VEGF-A121 induced activation of Erk (Erk; VEGF-A121 40 ng/ml) | VEGF-A165 induced activation of Erk (Erk) | activation of VEGFR-2 by VEGF-A165 (VEGFR-2; VEGF-A165 40 ng/ml) | tumor growth (MDA-MB231 tumors; 20 μg i.p. three times per week for four weeks) | average vessel number (microvessel density) (MDA-MB231 tumors; CD31 stained tumor sections, 20 μg i.p. three times per week, five animals each) [per mm^2]
CD44v6ECD: soluble CD44v6 ectodomain produced in Pichia pastoris | completely blocked | completely abrogated | completely blocked | completely abrogated | – | – | –
KEQWFGNRWHEGYR (listed as Homo sapiens) [v6 human peptide (14mer)] | – | – | – | abrogated | abrogated | – | –
QETWFQNGWQGKNP (listed as Mus musculus) [v6 murine peptide] | – | – | – | – | – | not influenced | 183
